These results are taken from ChEMBL document CHEMBL5729068, “Inhibitors of KRAS G12C and methods of using the same” (2022).

This test has as its target GTPase KRas (Homo sapiens, UniProt P01116, C118A/G12C). Nature of the test: Biochemical Assay: The following assay conditions were employed: Coupled Nucleotide Exchange Assay: Purified GDP-bound KRAS protein (aa 1-169), containing both G12C and C118A amino acid substitutions and an N-terminal His-tag, was pre-incubated with a compound dose-response titration for 5 min in assay buffer (25 mM HEPES pH 7.4, 10 mM MgCl2, and 0.01% Triton X-100). Following compound pre-incubation, purified SOS protein (aa 564-1049) and GTP (Roche 10106399001) were added to the assay wells and incubated for an additional 30 min. To determine the extent of inhibition of SOS-mediated nucleotide exchange, purified GST-tagged cRAF (aa 1-149), nickel chelate AlphaLISA acceptor beads (PerkinElmer AL108R), and AlphaScreen glutathione donor beads (PerkinElmer 6765302) were added to the assay wells and incubated for 5 minutes. The assay plates were then read on a PerkinElmer EnVision Multilabel Reader, using AlphaScreen® technology, and data were analyzed using a 4-parameter logistic model to calculate IC50 values.

Chain of GTPase KRas (P01116 whole entry G12C/C118A, the tested form may be a part): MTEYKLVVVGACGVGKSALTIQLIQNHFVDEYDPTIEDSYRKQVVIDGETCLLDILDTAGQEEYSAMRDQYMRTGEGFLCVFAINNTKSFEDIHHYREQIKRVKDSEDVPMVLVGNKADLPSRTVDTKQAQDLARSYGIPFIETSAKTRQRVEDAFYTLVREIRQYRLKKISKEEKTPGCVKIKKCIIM

For the compound `C=CC(=O)N1[C@H](C)CN(c2nc(=O)n(-c3c(C)ccnc3C(C)C)c3nc(-c4c(N)cccc4F)c(Cl)cc23)C[C@@H]1C` (atropisomer, axis not shown), the IC50 (in general, the concentration needed to halve the response being measured) is 14 nM.
